PubChem BioAssay AID248 (DTP/NCI, 2004)
Where “and” joins values, the source holds several entries; their conditions need not be identical. Identical values can stand only once. Toxic doses and inconclusive results are not listed. No stated cut-off is given here; in the data, active means T/C of 150% or more; inactive means T/C below 125%.

System: L1210 leukemia ip in BDF1 mice, survival T/C
Assay: NCI In Vivo Anticancer Drug Screen. Data for tumor model L1210 Leukemia (intraperitoneal) in B6D2F1 (BDF1) mice
Details: endpoint: mean survival time, higher = longer survival
Method in brief: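 Transplantable tumor model; survival measured in treated vs vehicle control mice. Value = treated/control.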

[1] = dose: 100.0 mg/kg/injection, schedule: Q01DX009 (ip), vehicle: other
[2] = dose: 100.0 mg/kg/injection, schedule: Q04DX002 (ip), vehicle: Klucel (hydroxypropylcellulose) (HPC)
[3] = dose: 100.0 mg/kg/injection, schedule: Q04DX003 (ip), vehicle: other
[4] = dose: 200.0 mg/kg/injection, schedule: Q01DX009 (ip), vehicle: other
[5] = dose: 200.0 mg/kg/injection, schedule: Q04DX002 (ip), vehicle: Klucel (hydroxypropylcellulose) (HPC)
[6] = dose: 200.0 mg/kg/injection, schedule: Q04DX003 (ip), vehicle: other
[7] = dose: 400.0 mg/kg/injection, schedule: Q01DX009 (ip), vehicle: other
[8] = dose: 400.0 mg/kg/injection, schedule: Q04DX003 (ip), vehicle: other
[9] = dose: 100.0 mg/kg/injection, schedule: Q01DX001 (ip), vehicle: saline
[10] = dose: 100.0 mg/kg/injection, schedule: Q04DX003 (ip), vehicle: saline
[11] = dose: 200.0 mg/kg/injection, schedule: Q01DX001 (ip), vehicle: saline
[12] = dose: 200.0 mg/kg/injection, schedule: Q04DX003 (ip), vehicle: saline
[13] = dose: 400.0 mg/kg/injection, schedule: Q01DX001 (ip), vehicle: saline
[14] = dose: 400.0 mg/kg/injection, schedule: Q04DX003 (ip), vehicle: saline
[15] = dose: 400.0 mg/kg/injection, schedule: Q04DX002 (ip), vehicle: Klucel (hydroxypropylcellulose) (HPC)
[16] = dose: 75.0 mg/kg/injection, schedule: Q01DX001 (ip), vehicle: saline
[17] = dose: 50.0 mg/kg/injection, schedule: Q01DX001 (ip), vehicle: saline
[18] = dose: 50.0 mg/kg/injection, schedule: Q01DX009 (ip), vehicle: saline
[19] = dose: 100.0 mg/kg/injection, schedule: Q01DX009 (ip), vehicle: saline
[20] = dose: 150.0 mg/kg/injection, schedule: Q01DX001 (ip), vehicle: saline
[21] = dose: 25.0 mg/kg/injection, schedule: Q01DX009 (ip), vehicle: Klucel (hydroxypropylcellulose) (HPC)
[22] = dose: 50.0 mg/kg/injection, schedule: Q01DX009 (ip), vehicle: Klucel (hydroxypropylcellulose) (HPC)
[23] = dose: 100.0 mg/kg/injection, schedule: Q01DX009 (ip), vehicle: Klucel (hydroxypropylcellulose) (HPC)
[24] = dose: 400.0 mg/kg/injection, schedule: Q01DX009 (ip), vehicle: Klucel (hydroxypropylcellulose) (HPC)
[25] = dose: 100.0 mg/kg/injection, schedule: Q01DX001 (ip), vehicle: carboxymethylcellulose (CMC)
[26] = dose: 200.0 mg/kg/injection, schedule: Q01DX001 (ip), vehicle: carboxymethylcellulose (CMC)
[27] = dose: 400.0 mg/kg/injection, schedule: Q01DX001 (ip), vehicle: carboxymethylcellulose (CMC)
[28] = dose: 200.0 mg/kg/injection, schedule: Q01DX009 (ip), vehicle: saline

Measured: T/C

CCCNC(=O)Oc1ccc(C2CCCCC2)cc1
inactive: dose: 100.0 mg/kg/injection, schedule: Q01DX001 (ip), vehicle: other 100 % of control | [1] 104 % of control and 87 % of control | [2] 110 % of control | dose: 100.0 mg/kg/injection, schedule: Q04DX002 (ip), vehicle: other 105 % of control and 109 % of control | [3] 100 % of control | dose: 200.0 mg/kg/injection, schedule: Q01DX001 (ip), vehicle: other 100 % of control | [4] 103 % of control and 111 % of control | [5] 100 % of control | dose: 200.0 mg/kg/injection, schedule: Q04DX002 (ip), vehicle: other 95 % of control and 111 % of control | [6] 102 % of control | dose: 400.0 mg/kg/injection, schedule: Q01DX001 (ip), vehicle: other 97 % of control | [7] 101 % of control and 112 % of control | dose: 400.0 mg/kg/injection, schedule: Q04DX002 (ip), vehicle: other 95 % of control and 107 % of control | [8] 104 % of control

COC1OCC(O)C(O)C1O (centres undefined)
inactive: [9] 92 % of control | [10] 98 % of control | [11] 95 % of control | [12] 106 % of control | [13] 95 % of control | [14] 101 % of control

Cc1ccc(S/C=C/Sc2ccc(C)cc2)cc1
inactive: [2] 99 % of control | [5] 99 % of control | [15] 99 % of control

CCCCC(CCCC)NC(C)CO (centres undefined)
inactive: [16] 102 % of control

CCSC(SCC)C(OC(C)=O)C(OC(C)=O)C(OC(C)=O)C(COC(c1ccccc1)(c1ccccc1)c1ccccc1)OC(C)=O (centres undefined)
inactive: dose: 100.0 mg/kg/injection, schedule: Q04DX002 (ip), vehicle: saline with Tween-80 101 % of control | dose: 200.0 mg/kg/injection, schedule: Q04DX002 (ip), vehicle: saline with Tween-80 89 % of control

CCCCCCCCCCNCCC(=O)O
inactive: dose: 12.5 mg/kg/injection, schedule: Q01DX001 (ip), vehicle: saline 94 % of control | dose: 25.0 mg/kg/injection, schedule: Q01DX001 (ip), vehicle: saline 94 % of control | dose: 25.0 mg/kg/injection, schedule: Q01DX009 (ip), vehicle: saline 104 % of control | dose: 37.5 mg/kg/injection, schedule: Q01DX009 (ip), vehicle: saline 104 % of control | [17] 100 % of control | [18] 102 % of control | [16] 101 % of control | dose: 75.0 mg/kg/injection, schedule: Q01DX009 (ip), vehicle: saline 88 % of control | [9] 101 % of control | [19] 104 % of control | [20] 94 % of control

C=C1C(=O)OCC2(CC)CCCCC12 (centres undefined)
inactive: dose: 20.0 mg/kg/injection, schedule: Q01DX009 (ip), vehicle: saline with Tween-80 103 % of control | dose: 40.0 mg/kg/injection, schedule: Q01DX009 (ip), vehicle: saline with Tween-80 106 % of control | dose: 80.0 mg/kg/injection, schedule: Q01DX009 (ip), vehicle: saline with Tween-80 91 % of control | dose: 160.0 mg/kg/injection, schedule: Q01DX009 (ip), vehicle: saline with Tween-80 98 % of control

Cc1ccc(S(=O)(=O)N(CCC#N)CCC#N)cc1
inactive: [21] 106 % of control | [22] 112 % of control | [23] 97 % of control and 101 % of control | dose: 200.0 mg/kg/injection, schedule: Q01DX009 (ip), vehicle: Klucel (hydroxypropylcellulose) (HPC) 92 % of control | [24] 96 % of control

COc1ccc(OC)c2c(C(O)CNC34CC5CC(CC(C5)C3)C4)cc(-c3ccc(Cl)cc3)nc12 (centres undefined)
inactive: [10] 97 % of control | [12] 92 % of control | [14] 92 % of control

CCN(CC)c1ccc(Cc2cc(O)c3c(c2O)C(=O)c2ccccc2C3=O)cc1
inactive: [22] 89 % of control | [23] 104 % of control | [2] 89 % of control | [5] 89 % of control | [15] 96 % of control

CC12CCC(O)C(C)(C)C1=C(O)C(=O)C1=C2C(=O)CC2(C)C(=O)CCC12C (centres undefined)
inactive: [10] 93 % of control | [12] 93 % of control | [14] 98 % of control

Cc1ccc2c(c1)CC=CO2
inactive: dose: 50.0 mg/kg/injection, schedule: Q01DX009 (ip), vehicle: carboxymethylcellulose (CMC) 91 % of control | [25] 96 % of control | dose: 100.0 mg/kg/injection, schedule: Q01DX009 (ip), vehicle: carboxymethylcellulose (CMC) 94 % of control and 97 % of control | dose: 100.0 mg/kg/injection, schedule: Q01DX009 (ip), vehicle: saline with Tween-80 88 % of control | dose: 100.0 mg/kg/injection, schedule: Q04DX003 (ip), vehicle: saline with Tween-80 101 % of control | [26] 96 % of control | dose: 200.0 mg/kg/injection, schedule: Q01DX009 (ip), vehicle: carboxymethylcellulose (CMC) 94 % of control and 95 % of control | dose: 200.0 mg/kg/injection, schedule: Q04DX003 (ip), vehicle: saline with Tween-80 97 % of control | [27] 100 % of control | dose: 400.0 mg/kg/injection, schedule: Q01DX009 (ip), vehicle: carboxymethylcellulose (CMC) 96 % of control | dose: 400.0 mg/kg/injection, schedule: Q01DX009 (ip), vehicle: saline with Tween-80 92 % of control | dose: 400.0 mg/kg/injection, schedule: Q04DX003 (ip), vehicle: saline with Tween-80 98 % of control

Cc1ccc(N2CCCC(=O)C(O)CCC2)cc1 (centres undefined)
inactive: [9] 98 % of control | [19] 100 % of control | [11] 90 % of control | [28] 96 % of control | dose: 300.0 mg/kg/injection, schedule: Q01DX009 (ip), vehicle: saline 116 % of control | [13] 90 % of control

CN(C)C1(Cc2ccc(Cl)cc2)c2ccccc2-c2ccccc21
inactive: [1] 94 % of control | [3] 105 % of control | [4] 98 % of control | [6] 100 % of control | [7] 104 % of control | [8] 115 % of control

COc1cc(-c2cc(OC)c(N=N/C(=N/Nc3ccc([N+](=O)[O-])cc3)c3ccc([N+](=O)[O-])cc3)cc2Cl)c(Cl)cc1N=N/C(=N\Nc1ccc([N+](=O)[O-])cc1)c1ccc([N+](=O)[O-])cc1
inactive: [17] 103 % of control | [9] 94 % of control | [11] 103 % of control | [13] 94 % of control

CCCC[n+]1cc(C(N)=O)cc2ccccc21
inactive: [16] 96 % of control | [20] 95 % of control

C=CCNCC=C
inactive: [17] 96 % of control | [9] 96 % of control | [11] 98 % of control

CC(=O)N(C)N=Nc1ccc(C)cc1
inactive: [21] 116 % of control | dose: 25.0 mg/kg/injection, schedule: Q04DX003 (ip), vehicle: other 101 % of control | [22] 110 % of control | dose: 50.0 mg/kg/injection, schedule: Q04DX003 (ip), vehicle: other 106 % of control | [23] 102 % of control and 108 % of control | [3] 118 % of control | [6] 123 % of control | [24] 105 % of control and 123 % of control

O=C(N/N=C/c1ccc(O)cc1O)C(O)(c1ccccc1)c1ccccc1
inactive: [25] 106 % of control | [26] 106 % of control | [27] 108 % of control

C[n+]1c(/C=C/c2ccnc3c(O)cccc23)sc2ccccc21
inactive: dose: 15.0 mg/kg/injection, schedule: Q01DX001 (ip), vehicle: saline 105 % of control | dose: 30.0 mg/kg/injection, schedule: Q01DX001 (ip), vehicle: saline 97 % of control

CNc1ccc(C(=O)O)cc1
inactive: [18] 102 % of control | [19] 109 % of control | [28] 106 % of control

O=C(O)C1C(Cl)C(Cl)C1C(=O)O (centres undefined)
inactive: [16] 104 % of control | [20] 101 % of control | dose: 300.0 mg/kg/injection, schedule: Q01DX001 (ip), vehicle: saline 96 % of control
